Columns and labels:
MuSCs [1] = experiment: Myogenesis (colony formation) assay; type: cell-based, C57BL/6J mice; details: MuSCs isolated from NR-treated aged mice
Method: Myogenesis assay. Five MuSCs were sorted directly into wells of a Matrigel-coated 96-well cell culture plate, containing MuSC growth medium (F10, 20% FBS, 2.5 ng/ml bFGF, 1×pen/strep), using the automated cell deposition unit (ACDU) of the FACSAria II instrument (BD Biosciences). Cells were cultured at 37° C. for 5 days. Cell colony formations were counted using the DM IL LED Inverted Microscope (Leica) after fixation in freshly made or defrosted 4% paraformaldehyde (PFA) for 10 min.

C2C12 myoblasts = experiment: Respirometry on C2C12 myoblasts (OCR, ECAR); type: cell-based, mouse; details: C2C12 cells, NR vs PBS for 6 hours, FIG. 4J
Method: Cell culture and treatments were prepared according to description of Example 3. C2C12 mouse myoblasts were grown in DMEM (4.5 g/1 glucose, Gibco) supplemented with 10% FBS and penicillin/streptomycin (1×, Gibco). Cell transformation with Phb (Santa Cruz) and Phb2 shRNA (Santa Cruz) were performed using jetPEI DNA transfection kit (Polyplus), according to manufacturer's instructions. Cells were treated with 1 mM NR or PBS for 6 hours before cell harvesting or fixation. Respirometry on C2C12 myoblasts. Basal and uncoupled oxygen consumption rates (OCRs) and the extracellular acidification rate (ECAR) was measured using the Seahorse extracellular flux bioanalyzer (XF96, Seahorse Bioscience Inc.). To uncouple mitochondria, 5 uM of FCCP was injected after a basal respiration measurement. All measurements were performed in triplicates and results were normalized to total protein amount (C2C12 cells), assessed using a Bradford kit (Bio-Rad).

primary MuSCs = experiment: Respirometry on MuSCs; type: cell-based, C57BL/6J mice; details: primary MuSCs isolated from NR-treated aged mice
Method: Respirometry on MuSCs. Basal and uncoupled oxygen consumption rates (OCRs) were measured using the Seahorse extracellular flux bioanalyzer (XF96, Seahorse Bioscience Inc.). To uncouple mitochondria, 5 uM of FCCP was injected after a basal respiration measurement. All measurements were performed in triplicates and results were normalized to total cell number seeded (primary MuSCs) assessed using a Bradford kit (Bio-Rad).

muscle = experiment: Cardiotoxin-induced muscle damage in NR-treated Mdx mice; type: in vivo
Method: Cardiotoxin-induced muscle damage. Animals were anesthetized using Isoflurane in oxygen from a precision vaporizer. 50 μl of 20 μM Naje mossambica mossambica cardiotoxin (Sigma) was injected intramuscularly cross the skin and directly into the tibialis anterior (TA) muscle. Mice were sacrificed at 7 and 14 days after injury. TA muscles were immediately embedded in Thermo Scientific™ Shandon™ Cryomatrix™ and frozen in isopentane, cooled in liquid nitrogen, for 2 mins before being transferred to dry ice and stored at −80° C.
Histology. TA muscles were harvested from anaesthetized mice and immediately frozen in Tissue-TEK® OCT compound (PST). 8-μm cryosections were collected and fixed with 4% paraformaldehyde, which are either stained with haematoxylin/eosin (HE) or antibodies. For immunostainings, heat activated antigen retrieval was performed in pH 6.0 citrate buffer for 10 min at 65° C. After washing with PBS-0.1% tween 20 (PBST), the sections were blocked with 10% affinipure Fab goat anti mouse IgG (Jackson Immunoresearch) in PBST for 60 min and PBST containing 2% BSA and 5% goat serum for 30 min at room temperature. Primary antibodies were then applied over night at 4° C. The following antibodies were used: anti-eMHC (Developmental Studies Hybridoma Bank, DSHB, University of Iowa), anti-Pax7 (DSHB, University of Iowa), anti-Laminin (Sigma). […]

MuSCs [2] = experiment: MuSC autofluorescence (405/450) as measure of relative NAD(P)H, cellular redox ratio; type: cell-based; details: MuSCs isolated from NR-treated Mdx mice, FIG. 6G-I
Method: Determining cellular redox ratio. NAD+ and NADH quantification and ratio were measured using a kit from Biovision (Milpitas, Calif.), following providers' instructions. With continuous muscle regeneration, MuSCs in Mdx mice are abnormally active at a young age, leading to MuSC depletion and dysfunction later in life. […] Thus the self-renewal capacity of Mdx mouse MuSCs was tested. The cellular redox ratio decreases as MuSCs differentiate (Fulco et al., 2003, Molecular Cell, 12: 51), which can be detected by the increase in 405/450 autofluorescence (Quinn et al., 2013, Scientific Reports, 3: 3432). […] We then performed β-galactosidase staining on primary MuSCs isolated from Mdx mice, with or without NR treatment, and cultured these cells with NR or vehicle in vitro. […] The prevention of MuSCs senescence in NR-treated Mdx mice was confirmed by the attenuation of γH2AX and cleaved caspase-3 immunostaining (FIG. 6K). To evaluate MuSC function, CTX-induced muscle regeneration was examined in NR-treated mice.

## NC(=O)c1ccc[n+]([C@@H]2O[C@H](CO)[C@@H](O)[C@H]2O)c1 [NR, nicotinamide riboside]
MuSCs [1]
  myogenic colony formation (proliferation ability): enhanced potential to form myogenic colonies
C2C12 myoblasts
  glycolysis (ECAR): reductions in glycolysis
  oxidative respiration (OCR): increases in oxidative respiration
Primary MuSCs
  oxidative respiration: trend in oxidative respiration was replicated
muscle; 7 days after CTX, FIG. 6F
  regenerated muscle fibers (eMyHC): increase in regenerated muscle fibers
muscle; 7 days of recovery, FIG. 6L
  CTX-induced muscle regeneration (H/E): muscle regeneration was improved
MuSCs [2]
  405/450 autofluorescence of MuSCs: significant reduction in autofluorescence

Reference: patent US10905704B2, “Agents and methods using thereof for the prevention and treatment of stem cell muscle disorders” (ECOLE POLYTECHNIQUE FEDERALE DE LAUSANNE (EPFL), priority 2015, dated 2021)
